Laboratory results: PubChem BioAssay (NCI)
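All cell lines were grown in 96-well plates and treated with compound for 48 hours. GI50 is the concentration that inhibits growth by half. TGI denotes the concentration required for complete inhibition of growth.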

Legend:
Experiment in all cases: NCI anticancer screen, dose series, 48 h
[1] = system: 786-0 renal
[2] = system: A498 renal
[3] = system: A549 NSCLC
[4] = system: ACHN renal
[5] = system: BT-549 breast
[6] = system: CAKI-1 renal
[7] = system: CCRF-CEM leukemia
[8] = system: COLO 205 colon
[9] = system: DU-145 prostate
[10] = system: EKVX NSCLC
[11] = system: HCC-2998 colon
[12] = system: HCT-116 colon
[13] = system: HCT-15 colon
[14] = system: HL-60(TB) leukemia
[15] = system: HOP-62 NSCLC
[16] = system: HOP-92 NSCLC
[17] = system: HS 578T breast
[18] = system: HT29 colon
[19] = system: IGROV1 ovarian
[20] = system: K-562 leukemia
[21] = system: KM12 colon
[22] = system: LOX IMVI melanoma
[23] = system: M14 melanoma
[24] = system: MALME-3M melanoma
[25] = system: MCF7 breast
[26] = system: MDA-MB-231 breast
[27] = system: MOLT-4 leukemia
[28] = system: NCI-H226 lung
[29] = system: NCI-H23 lung
[30] = system: NCI-H460 lung
[31] = system: NCI-H522 lung
[32] = system: NCI/ADR-RES ovarian
[33] = system: OVCAR-3 ovarian
[34] = system: OVCAR-4 ovarian
[35] = system: OVCAR-5 ovarian
[36] = system: OVCAR-8 ovarian
[37] = system: PC-3 prostate
[38] = system: RPMI-8226 leukemia
[39] = system: RXF 393 renal
[40] = system: SF-268 CNS
[41] = system: SF-295 CNS
[42] = system: SF-539 CNS
[43] = system: SK-MEL-2 melanoma
[44] = system: SK-MEL-5 melanoma
[45] = system: SK-OV-3 ovarian
[46] = system: SN12C renal
[47] = system: SNB-19 CNS
[48] = system: SNB-75 CNS
[49] = system: SR leukemia
[50] = system: SW-620 colon
[51] = system: T-47D breast
[52] = system: TK-10 renal
[53] = system: U251 CNS
[54] = system: UACC-62 melanoma
[55] = system: UO-31 renal

`COc1ccc(C(O)c2cc3c(N)c(C(=O)Nc4ccccc4)sc3nc2C)cc1` (stereo not given) showed a GI50 [1] of 76.3 nM, a TGI [1] of 25.3 µM and a GI50 [2] of 26.2 nM. It also gave a TGI [2] of 2790 nM, a GI50 [3] of 62.8 nM and a TGI [3] of over 100 µM. It also gave a GI50 [4] of 68.3 nM, a TGI [4] of 27.5 µM and a GI50 [5] of 186 nM. It also gave a TGI [5] of 36.4 µM, a GI50 [6] of 41.6 nM and a TGI [6] of 20.7 µM. The GI50 [7] was 38.3 nM, the TGI [7] was over 100 µM and the GI50 [8] was 219 nM. It also gave a TGI [8] of 1800 nM, a GI50 [9] of 41.4 nM and a TGI [9] of 50.6 µM. For the same molecule, the GI50 [10] was 61.7 nM, the TGI [10] was over 100 µM and the GI50 [11] was 102 nM. For the same molecule, the TGI [11] was 3.79 µM, the GI50 [12] was 42.5 nM and the TGI [12] was over 35.4 µM. For the same molecule, the GI50 [13] was 40.3 nM, the TGI [13] was over 100 µM and the GI50 [14] was 32.4 nM. It also gave a TGI [14] of 459 nM, a GI50 [15] of 77.4 nM and a TGI [15] of 68.6 µM. The GI50 [16] was 54.6 nM, the TGI [16] was 12.1 µM and the GI50 [17] was 30.5 nM. The TGI [17] was 3.01 µM, the GI50 [18] was 33.3 nM and the TGI [18] was 8.6 µM. It also gave a GI50 [19] of 94 nM, a TGI [19] of 22.6 µM and a GI50 [20] of 38.2 nM. It also gave a TGI [20] of over 100 µM, a GI50 [21] of 40.3 nM and a TGI [21] of over 100 µM. For the same molecule, the GI50 [22] was 53.9 nM, the TGI [22] was over 100 µM and the GI50 [23] was 34.9 nM. It also gave a TGI [23] of over 100 µM, a GI50 [24] of 51 nM and a TGI [24] of 35.1 µM. The GI50 [25] was 34.5 nM, the TGI [25] was 19.3 µM and the GI50 [26] was 72.8 nM. The TGI [26] was 9.63 µM, the GI50 [27] was 50.8 nM and the TGI [27] was over 100 µM. It also gave a GI50 [28] of 57.9 nM, a TGI [28] of 1870 nM and a GI50 [29] of 75.4 nM. The TGI [29] was over 50.1 µM, the GI50 [30] was 36.1 nM and the TGI [30] was 11.1 µM. For the same molecule, the GI50 [31] was 34.7 nM, the TGI [31] was 2570 nM and the GI50 [32] was 38.1 nM. The TGI [32] was 2020 nM, the GI50 [33] was 32.1 nM and the TGI [33] was 1270 nM. It also gave a GI50 [34] of 2030 nM, a TGI [34] of over 100 µM and a GI50 [35] of 71.4 nM. For the same molecule, the TGI [35] was 25.4 µM, the GI50 [36] was 63.6 nM and the TGI [36] was over 100 µM. It also gave a GI50 [37] of 140 nM, a TGI [37] of over 74.3 µM and a GI50 [38] of 41.6 nM. It also gave a TGI [38] of over 100 µM, a GI50 [39] of 28.6 nM and a TGI [39] of 911 nM. The GI50 [40] was 174 nM, the TGI [40] was over 70 µM and the GI50 [41] was 35.2 nM. The TGI [41] was 12.6 µM, the GI50 [42] was 34.8 nM and the TGI [42] was 825 nM. It also gave a GI50 [43] of 238 nM, a TGI [43] of over 100 µM and a GI50 [44] of 35.9 nM. It also gave a TGI [44] of 591 nM, a GI50 [45] of 53.9 nM and a TGI [45] of 25.4 µM. It also gave a GI50 [46] of 62.8 nM, a TGI [46] of 29.5 µM and a GI50 [47] of 44.3 nM. For the same molecule, the TGI [47] was 20.4 µM, the GI50 [48] was 26.7 nM and the TGI [48] was 21.9 µM. It also gave a GI50 [49] of 33.3 nM, a TGI [49] of over 100 µM and a GI50 [50] of 39.1 nM. For the same molecule, the TGI [50] was over 100 µM, the GI50 [51] was 51.4 nM and the TGI [51] was over 100 µM. The GI50 [52] was 4.51 µM, the TGI [52] was 49.8 µM and the GI50 [53] was 42.5 nM. It also gave a TGI [53] of 29.7 µM, a GI50 [54] of 39.7 nM and a TGI [54] of 19.4 µM. For the same molecule, the GI50 [55] was 70.6 nM and the TGI [55] was 49.8 µM.
